Values of other authors, collected in US20140294799A1, “USE OF COMPOSITIONS HAVING A LOW POLYAMINE CONTENT IN THE PREVENTION OR TREATMENT OF ADVERSE EFFECTS LINKED TO CANCER TREATMENT” (NUTRIALYS MEDICAL NUTRITION SA, priority 2011, published 2014).

Test system: skin of irradiated animals
Conditions: topical application to the skin of irradiated animals

Structure (SMILES)	effect on dermatitis	effect on alopecia
N=C(N)NCCCCN [agmatine]	reduce dermatitis	
NCCCNCCCCNCCCN [spermine]		effective in the treatment of alopecia
